US20220144838A1, “Compounds as Inhibitors of Macrophage Migration Inhibitory Factor” (NANJING IMMUNOPHAGE BIOTECH CO., LTD., priority 2019, published 2022)

These molecules were tested against T1, MIF (Homo sapiens, UniProt P14174) (assay: MIF tautomerase assay using pHPP as substrate). Conditions: inhibition of the MIF enzyme in vitro; mean of multiple test results; read-out: Tautomerase Inhibition pIC50 (converted).
T1 sequence (P14174 2-115 limits assumed): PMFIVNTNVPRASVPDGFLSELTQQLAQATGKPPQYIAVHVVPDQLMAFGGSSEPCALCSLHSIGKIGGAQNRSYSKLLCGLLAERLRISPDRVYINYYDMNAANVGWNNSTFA
Type: biochemical
Description: Tautomerase Assay Using pHPP as Substrate
This assay measured MIF's tautomerase activity in a cell-free system and was based on the determination of initial rates of the MIF-catalyzed conversion of the ketonic into the enolic tautomer of pHPP. This was achieved by spectrophotometric quantification of the complex between borate and the product of the reaction (enolic pHPP). The substrate was prepared by conversion of the enolic pHPP into its ketonic form. To achieve this, 0.5 M pHPP in methanol was diluted 10-fold with 50 mM sodium acetate buffer at pH 6.0, and then the suspension was shaken for 24 h at room temperature in darkness, and finally stored at 4° C. for not more than 1 week, with 5 min sonication being recommended before use.
Assays were performed in small-volume clear-bottom black 96 or 384-well polystyrene plates (Greiner Bio-One). First, 2 μL of the enzyme solution containing 6 nM of MIF in DPBS, 0.025% w/v BSA, and 300 μM CHAPS was dispensed onto sample and negative control wells using Multidrop Combi with metallic tip cassettes (Thermo Fisher Scientific) previously treated with Sigmacote. Then, 2 μL of the same buffer without MIF was dispensed onto positive control wells. The reaction was started by addition of the following to all wells: 2 μL of substrate solution containing 3 mM ketonic pHPP in 200 mM boric acid, 25 mM sodium phosphate, 0.025% w/v BSA, and 300 μM CHAPS at pH 6.0. In order to remove bubbles, the plate was centrifuged in an Allegra 25R centrifuge (Beckman Coulter, Inc., Brea, Calif.) at 1000 rpm for 2 min at room temperature. Then, the plate was read in an EnVision. Final concentrations of enzyme and substrate were 3 nM and 1.5 mM, respectively. Initial rates were calculated for each well as the slope of the absorbance progress curve.
All exemplified compounds (Examples 1-230) were tested in the MIF tautomerase assay or a similar assay described above. The data mentioned below represents a mean pIC50 value of multiple test results. It is understood that the data illustrated below may have reasonable variation depending on the specific conditions and procedures used by the person conducting the testing.

Compound | IC50 [nM]
Nc1nc(N2CCC(n3cc(C(=O)O)cn3)CC2)nc2c1ncn2-c1ccncc1 [Example 195, 1-(1-(6-amino-9-(pyridin-4-yl)-9H-purin-2-yl)piperidin-4-yl)-1H-pyrazole-4-carboxylic acid] | > 10000
Nc1nc(N2CCN(c3ccc(CCO)cc3)CC2)nc2c1ncn2-c1ccncc1 [Example 191, 2-(4-(4-(6-amino-9-(pyridin-4-yl)-9H-purin-2-yl)piperazin-1-yl)phenyl)ethan-1-ol] | > 10000
CC(C(=O)O)n1cnc2c(-n3cc4ccccc4n3)nc(N3CCN(c4ccc(O)cc4)CC3)nc21 (stereo not drawn) [Example 126, 2-(2-(4-(4-hydroxyphenyl)piperazin-1-yl)-6-(2H-indazol-2-yl)-9H-purin-9-yl)propanoic acid] | 100 to 977
COc1ccc(-n2cnc3c(N)nc(N4CCN(c5ccc(O)cc5)CC4)nc32)c(OC)n1 [Example 84, 4-(4-(6-amino-9-(2,6-dimethoxypyridin-3-yl)-9H-purin-2-yl)piperazin-1-yl)phenol] | 1000 to 9770
O=C(O)Cn1cnc2c(-n3cnc4ccccc43)nc(N3CCN(c4ccc(O)cc4)CC3)nc21 [Example 41, 2-(6-(1H-benzo[d]imidazol-1-yl)-2-(4-(4-hydroxyphenyl)piperazin-1-yl)-9H-purin-9-yl)acetic acid] | 10 to 97.7
COc1cccc2c1cnn2-c1nc(N2CCN(c3ccc(O)cc3)CC2)nc2c1ncn2CC(=O)O [Example 107, 2-(6-(4-methoxy-1H-indazol-1-yl)-2-(4-(4-hydroxyphenyl)piperazin-1-yl)-9H-purin-9-yl)acetic acid] | 10 to 97.7
O=C(O)Cn1cnc2c(-n3ncc4c(O)cccc43)nc(N3CCN(c4ccc(O)cc4)CC3)nc21 [Example 108, 2-(6-(4-hydroxy-1H-indazol-1-yl)-2-(4-(4-hydroxyphenyl)piperazin-1-yl)-9H-purin-9-yl)acetic acid] | 10 to 97.7
Cc1nc(N2CCN(c3ccc(O)cc3)CC2)nc2c1ncn2-c1cccnc1 [Example 59, 4-(4-(6-methyl-9-(pyridin-3-yl)-9H-purin-2-yl)piperazin-1-yl)phenol] | 100 to 977
CC1(C(=O)O)CCCN1c1nc(N2CCN(c3ccc(O)cc3)CC2)nc2c1ncn2-c1ccncc1 (stereo not drawn) [Example 172, 1-(2-(4-(4-hydroxyphenyl)piperazin-1-yl)-9-(pyridin-4-yl)-9H-purin-6-yl)-2-methylpyrrolidine-2-carboxylic acid] | 10 to 97.7
CC(C(=O)O)n1cnc2nc(N3CCN(c4ccc(O)cc4)CC3)nc(-n3ncc4ccccc43)c21 (stereo not drawn) [Example 125, 2-(2-(4-(4-hydroxyphenyl)-piperazin-1-yl)-6-(1H-indazol-1-yl)-7H-purin-7-yl)propanoic acid] | 100 to 977
Nc1nc(N2CCN(c3ccc(O)cc3)CC2)nc2c1ncn2-c1ccccc1F [Example 71, 4-(4-(6-amino-9-(2-fluorophenyl)-9H-purin-2-yl)piperazin-1-yl)phenol] | 1000 to 9770
Oc1ccc(N2CCN(c3nc(-n4ncc5ccccc54)c4ncn(Cc5ccccn5)c4n3)CC2)cc1 [Example 116, 4-(4-(6-(1H-indazol-1-yl)-9-(pyridin-2-ylmethyl)-9H-purin-2-yl)piperazin-1-yl)phenol] | 100 to 977
C[C@H](Nc1nc(N2CCN(c3ccc(O)cc3)CC2)nc2c1ncn2CCO)c1ccccc1 [Example 4, (S)-4-(4-(9-(2-hydroxyethyl)-6-((1-phenylethyl)amino)-9H-purin-2-yl)piperazin-1-yl)phenol] | > 10000
OCCn1cnc2c(N[C@@H](CO)Cc3ccccc3)nc(N3CCN(c4ccc(O)cc4)CC3)nc21 [Example 5, (R)-4-(4-(6-((1-hydroxy-3-phenylpropan-2-yl)amino)-9-(2-hydroxyethyl)-9H-purin-2-yl)piperazin-1-yl)phenol] | > 10000
O=C(O)Cn1cnc2nc(N3CCN(c4ccc(O)cn4)CC3)nc(-n3ncc4ccccc43)c21 [Example 22, 2-(2-(4-(5-hydroxypyridin-2-yl)piperazin-1-yl)-6-(1H-indazol-1-yl)-7H-purin-7-yl)acetic acid] | 1000 to 9770
CCOc1ncccc1-n1cnc2c(N)nc(N3CCN(c4ccc(O)cc4)CC3)nc21 [Example 83, 4-(4-(6-amino-9-(2-ethoxypyridin-3-yl)-9H-purin-2-yl)piperazin-1-yl)phenol] | 1000 to 9770
CN(CC(=O)O)c1nc(N2CCN(c3ccccc3)CC2)nc2c1ncn2-c1ccncc1 [Example 180, N-methyl-N-(2-(4-phenylpiperazin-1-yl)-9-(pyridin-4-yl)-9H-purin-6-yl)glycine] | > 10000

Compound | IC50 [nM]
COC(=O)c1ccc(-n2cnc3c(N)nc(N4CCN(c5ccc(O)cc5)CC4)nc32)cc1 [Example 101, methyl 4-(6-amino-2-(4-(4-hydroxyphenyl)piperazin-1-yl)-9H-purin-9-yl)benzoate] | 100 to 977
Nc1nc(N2CCC(O)(c3ccc(O)cc3)CC2)nc2c1ncn2-c1cccnc1 [Example 208, 1-(6-amino-9-(pyridin-3-yl)-9H-purin-2-yl)-4-(4-hydroxyphenyl)piperidin-4-ol] | 100 to 977
CCOC(=O)Cn1cnc2c(-n3ncc4ccccc43)nc(N3CCN(c4ccc(O)cc4)CC3)nc21 [Example 44, ethyl 2-(2-(4-(4-hydroxyphenyl)piperazin-1-yl)-6-(1H-indazol-1-yl)-9H-purin-9-yl)acetate] | 100 to 977
Nc1nc(N2CCN(c3ccc(C(=O)O)cn3)CC2)nc2c1ncn2-c1ccncc1 [Example 193, 6-(4-(6-amino-9-(pyridin-4-yl)-9H-purin-2-yl)piperazin-1-yl)nicotinic acid] | > 10000
Nc1nc(N2CCN(c3ccc(CO)cc3)CC2)nc2c1ncn2-c1ccncc1 [Example 192, (4-(4-(6-amino-9-(pyridin-4-yl)-9H-purin-2-yl)piperazin-1-yl)phenyl)methanol] | > 10000
O=C(O)CNc1nc(N2CCN(c3ccc(O)cc3)CC2)nc2c1ncn2-c1ccncc1 [Example 163, (2-(4-(4-hydroxyphenyl)piperazin-1-yl)-9-(pyridin-4-yl)-9H-purin-6-yl)glycine] | 10 to 97.7
CN1CCN(c2nc(N3CCN(c4ccc(O)cc4)CC3)nc3c2ncn3-c2ccncc2)CC1 [Example 179, 4-(4-(6-(4-methylpiperazin-1-yl)-9-(pyridin-4-yl)-9H-purin-2-yl)piperazin-1-yl)phenol] | 1000 to 9770
OCCCn1cnc2c(N3CCc4ccccc43)nc(N3CCN(c4ccc(O)cc4)CC3)nc21 [Example 7, 4-(4-(9-(3-hydroxypropyl)-6-(indolin-1-yl)-9H-purin-2-yl)piperazin-1-yl)phenol] | 1000 to 9770
CN(C)Cc1cccc2c1cnn2-c1nc(N2CCN(c3ccc(O)cc3)CC2)nc2c1ncn2CC(=O)O [Example 143, 2-(6-(4-((dimethylamino)methyl)-1H-indazol-1-yl)-2-(4-(4-hydroxyphenyl)piperazin-1-yl)-9H-purin-9-yl)acetic acid] | 100 to 977
NC(=O)Cn1cnc2c(-n3ncc4ccccc43)nc(N3CCN(c4ccc(O)cc4)CC3)nc21 [Example 47, 2-(2-(4-(4-hydroxyphenyl)piperazin-1-yl)-6-(1H-indazol-1-yl)-9H-purin-9-yl)acetamide] | 100 to 977
Nc1nc(N2CC(O)(c3nccs3)C2)nc2c1ncn2-c1ccncc1 [Example 201, 1-(6-amino-9-(pyridin-4-yl)-9H-purin-2-yl)-3-(thiazol-2-yl)azetidin-3-ol] | > 10000
O=C(O)Cn1cnc2c(-n3ncc4ccc(C(=O)O)cc43)nc(N3CCN(c4ccc(O)cc4)CC3)nc21 [Example 104, 1-(9-(carboxymethyl)-2-(4-(4-hydroxyphenyl)piperazin-1-yl)-9H-purin-6-yl)-1H-indazole-6-carboxylic acid] | 1000 to 9770
CC(C(=O)O)n1cnc2c(-n3ncc4ccccc43)nc(N3CCN(c4ccc(O)cn4)CC3)nc21 (stereo not drawn) [Example 145, 2-(2-(4-(5-hydroxypyridin-2-yl)piperazin-1-yl)-6-(1H-indazol-1-yl)-9H-purin-9-yl)propanoic acid] | 10 to 97.7
OC[C@H]1CCCN1c1nc(N2CCN(c3ccc(O)cc3)CC2)nc2c1ncn2-c1cccnc1 [Example 93, (R)-4-(4-(6-(2-(hydroxymethyl)pyrrolidin-1-yl)-9-(pyridin-3-yl)-9H-purin-2-yl)piperazin-1-yl)phenol] | 100 to 977
C[C@H]1CN(c2ccc(O)cc2)CCN1c1nc(-n2ncc3ccccc32)c2ncn(CC(=O)O)c2n1 [Example 15, (S)-2-(2-(4-(4-hydroxyphenyl)-2-methylpiperazin-1-yl)-6-(1H-indazol-1-yl)-9H-purin-9-yl)acetic acid] | 1000 to 9770
COc1ccc(-n2cnc3c(N)nc(N4CCN(c5ccc(O)cc5)CC4)nc32)cn1 [Example 85, 4-(4-(6-amino-9-(6-methoxypyridin-3-yl)-9H-purin-2-yl)piperazin-1-yl)phenol] | 100 to 977
